Results reported in article PMC12090182, “Repurposing of the RIPK1-Selective Benzo[1,4]oxazepin-4-one Scaffold for the Development of a Type III LIMK1/2 Inhibitor” (ACS Chemical Biology, 2025).

What was measured:
Test in all cases: scanMAX KINOMEscan (Eurofins)
Type in all cases: binding
ACVR1 = ACVR1 (Homo sapiens, UniProt Q04771); details: 1000 nM, read-out: Percent Control
Text: (§1) Supplement cb5c00097_si_002.xlsx, sheet "Table S6 (Eurofins Selectivity)" | column: Percent Control

AURKB = AURKB (Homo sapiens, UniProt Q96GD4); details: read-out: Percent Control
Chain of AURKB (Q96GD4 whole entry): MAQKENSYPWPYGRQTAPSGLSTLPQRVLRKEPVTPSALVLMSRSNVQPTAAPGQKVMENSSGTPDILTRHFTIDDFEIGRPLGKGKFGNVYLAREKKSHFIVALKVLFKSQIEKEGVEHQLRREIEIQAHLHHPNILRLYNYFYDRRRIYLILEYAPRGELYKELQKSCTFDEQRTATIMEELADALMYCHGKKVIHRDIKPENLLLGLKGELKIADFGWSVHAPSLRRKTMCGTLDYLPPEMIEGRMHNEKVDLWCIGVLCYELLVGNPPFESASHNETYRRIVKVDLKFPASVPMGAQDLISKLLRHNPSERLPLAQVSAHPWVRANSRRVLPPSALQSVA
Text: as §1

CAMK2B = CAMK2B (Homo sapiens, UniProt Q13554); details: 1000 nM, read-out: Percent Control
Text: as §1

CAMKK1 = CAMKK1 (Homo sapiens, UniProt Q8N5S9); details: 1000 nM, read-out: Percent Control
Text: as §1

CDK11 = CDK11 (Homo sapiens, UniProt Q9BWU1); details: read-out: Percent Control
Chain of CDK11 (Q9BWU1 whole entry): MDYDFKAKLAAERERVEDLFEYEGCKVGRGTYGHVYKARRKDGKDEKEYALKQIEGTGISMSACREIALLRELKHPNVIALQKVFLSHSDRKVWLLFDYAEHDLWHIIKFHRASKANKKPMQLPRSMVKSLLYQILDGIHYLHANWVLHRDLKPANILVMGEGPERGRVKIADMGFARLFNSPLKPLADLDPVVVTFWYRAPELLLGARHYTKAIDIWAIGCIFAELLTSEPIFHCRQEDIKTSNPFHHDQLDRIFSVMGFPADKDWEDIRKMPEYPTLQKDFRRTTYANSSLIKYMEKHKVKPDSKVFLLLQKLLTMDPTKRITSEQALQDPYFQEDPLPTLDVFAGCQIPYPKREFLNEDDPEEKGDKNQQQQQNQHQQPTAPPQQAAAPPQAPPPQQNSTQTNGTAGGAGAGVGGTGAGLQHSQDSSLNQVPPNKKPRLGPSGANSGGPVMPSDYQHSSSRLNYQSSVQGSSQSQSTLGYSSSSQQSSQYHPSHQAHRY
Text: as §1

CDK3 = CDK3 (Homo sapiens, UniProt Q00526); details: 1000 nM, read-out: Percent Control
Text: as §1

CDKL1 = CDKL1 (Homo sapiens, UniProt Q00532); details: read-out: Percent Control
Chain of CDKL1 (Q00532 whole entry): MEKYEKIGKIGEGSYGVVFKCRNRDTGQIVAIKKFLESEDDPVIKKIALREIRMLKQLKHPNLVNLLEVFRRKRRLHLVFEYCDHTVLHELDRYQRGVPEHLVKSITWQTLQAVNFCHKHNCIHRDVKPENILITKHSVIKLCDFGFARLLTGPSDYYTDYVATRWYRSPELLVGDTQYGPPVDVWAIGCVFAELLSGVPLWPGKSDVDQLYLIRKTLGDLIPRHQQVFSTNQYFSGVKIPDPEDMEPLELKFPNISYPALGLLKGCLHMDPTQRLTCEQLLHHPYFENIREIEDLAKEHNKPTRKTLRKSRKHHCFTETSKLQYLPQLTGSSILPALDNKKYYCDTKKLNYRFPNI
Text: as §1

CIT = CIT (Homo sapiens, UniProt O14578); details: 1000 nM, read-out: Percent Control
Text: as §1

CSF1R = CSF1R (Homo sapiens, UniProt P07333); details: read-out: Percent Control
Chain of CSF1R (P07333 20-972): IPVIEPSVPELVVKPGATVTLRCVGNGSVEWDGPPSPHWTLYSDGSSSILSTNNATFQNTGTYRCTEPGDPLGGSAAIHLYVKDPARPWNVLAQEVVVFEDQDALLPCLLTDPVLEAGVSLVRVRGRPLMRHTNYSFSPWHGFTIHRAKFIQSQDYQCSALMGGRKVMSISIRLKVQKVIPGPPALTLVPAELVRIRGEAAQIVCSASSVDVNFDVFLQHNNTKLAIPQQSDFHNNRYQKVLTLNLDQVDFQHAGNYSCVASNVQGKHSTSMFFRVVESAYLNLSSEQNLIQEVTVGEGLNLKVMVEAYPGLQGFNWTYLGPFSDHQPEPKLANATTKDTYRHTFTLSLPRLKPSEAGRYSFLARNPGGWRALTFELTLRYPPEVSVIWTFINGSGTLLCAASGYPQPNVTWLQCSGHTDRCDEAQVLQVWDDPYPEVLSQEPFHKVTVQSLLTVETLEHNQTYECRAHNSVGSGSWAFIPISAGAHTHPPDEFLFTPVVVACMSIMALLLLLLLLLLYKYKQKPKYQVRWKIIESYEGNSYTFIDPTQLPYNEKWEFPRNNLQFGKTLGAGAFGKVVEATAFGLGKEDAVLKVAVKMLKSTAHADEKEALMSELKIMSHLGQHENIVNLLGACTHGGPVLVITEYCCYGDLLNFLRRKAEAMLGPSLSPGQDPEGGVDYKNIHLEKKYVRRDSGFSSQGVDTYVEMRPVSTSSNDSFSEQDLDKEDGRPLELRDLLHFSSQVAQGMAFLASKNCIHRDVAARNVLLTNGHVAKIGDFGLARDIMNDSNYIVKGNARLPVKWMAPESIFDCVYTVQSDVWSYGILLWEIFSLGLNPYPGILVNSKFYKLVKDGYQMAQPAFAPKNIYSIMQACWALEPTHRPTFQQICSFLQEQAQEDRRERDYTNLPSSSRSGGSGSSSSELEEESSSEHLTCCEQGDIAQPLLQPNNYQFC
Text: as §1

CSNK2A2 = CSNK2A2 (Homo sapiens, UniProt P19784); details: 1000 nM, read-out: Percent Control
Text: as §1

CTK = CTK (Homo sapiens, UniProt P42679); details: 1000 nM, read-out: Percent Control
Text: as §1

EPHA4 = EPHA4 (Homo sapiens, UniProt P54764); details: read-out: Percent Control
Chain of EPHA4 (P54764 20-986): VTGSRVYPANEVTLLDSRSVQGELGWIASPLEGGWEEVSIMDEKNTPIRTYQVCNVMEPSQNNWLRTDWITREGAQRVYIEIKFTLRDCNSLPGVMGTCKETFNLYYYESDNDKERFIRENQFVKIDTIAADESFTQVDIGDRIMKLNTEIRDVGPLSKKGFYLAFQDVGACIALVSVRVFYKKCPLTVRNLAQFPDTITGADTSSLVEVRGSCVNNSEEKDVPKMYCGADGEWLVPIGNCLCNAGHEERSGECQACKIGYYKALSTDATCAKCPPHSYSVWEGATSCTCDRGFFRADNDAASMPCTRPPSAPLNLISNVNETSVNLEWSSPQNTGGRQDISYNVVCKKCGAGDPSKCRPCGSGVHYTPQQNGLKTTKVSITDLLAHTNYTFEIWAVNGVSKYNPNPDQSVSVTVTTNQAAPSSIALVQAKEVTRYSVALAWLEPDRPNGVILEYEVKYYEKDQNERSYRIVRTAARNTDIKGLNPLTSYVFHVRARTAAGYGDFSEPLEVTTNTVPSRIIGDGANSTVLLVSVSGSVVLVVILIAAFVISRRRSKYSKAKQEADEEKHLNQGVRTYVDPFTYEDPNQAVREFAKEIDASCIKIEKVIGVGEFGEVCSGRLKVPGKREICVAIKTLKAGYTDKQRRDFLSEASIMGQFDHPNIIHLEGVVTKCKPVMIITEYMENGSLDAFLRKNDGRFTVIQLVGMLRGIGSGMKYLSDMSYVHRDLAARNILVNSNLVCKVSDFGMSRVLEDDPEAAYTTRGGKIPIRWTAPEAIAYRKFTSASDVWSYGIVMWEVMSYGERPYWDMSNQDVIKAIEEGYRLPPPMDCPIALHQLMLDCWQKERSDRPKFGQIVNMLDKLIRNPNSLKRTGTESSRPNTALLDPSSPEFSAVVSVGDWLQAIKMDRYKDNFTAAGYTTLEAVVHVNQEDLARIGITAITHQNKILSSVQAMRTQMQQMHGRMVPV
Text: as §1

ERK8 = ERK8 (Homo sapiens, UniProt Q8TD08); details: read-out: Percent Control
Chain of ERK8 (Q8TD08 whole entry): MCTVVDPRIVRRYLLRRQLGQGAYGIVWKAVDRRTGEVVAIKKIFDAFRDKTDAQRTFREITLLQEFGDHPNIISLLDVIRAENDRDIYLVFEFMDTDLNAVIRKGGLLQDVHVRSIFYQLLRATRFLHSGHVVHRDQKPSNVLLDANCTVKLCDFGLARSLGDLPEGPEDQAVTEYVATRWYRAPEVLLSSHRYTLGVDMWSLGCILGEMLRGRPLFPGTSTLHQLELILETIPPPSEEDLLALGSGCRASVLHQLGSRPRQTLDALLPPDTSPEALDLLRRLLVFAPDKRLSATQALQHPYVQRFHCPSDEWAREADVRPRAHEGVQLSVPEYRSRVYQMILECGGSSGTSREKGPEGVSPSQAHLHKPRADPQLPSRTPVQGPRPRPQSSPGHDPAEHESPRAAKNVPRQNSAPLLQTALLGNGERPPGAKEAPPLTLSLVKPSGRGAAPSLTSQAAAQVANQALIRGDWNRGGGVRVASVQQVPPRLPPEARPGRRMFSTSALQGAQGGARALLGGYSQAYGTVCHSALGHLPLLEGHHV
Text: as §1

HASPIN = HASPIN (Homo sapiens, UniProt Q8TF76); details: 1000 nM, read-out: Percent Control
Text: as §1

[1] = target: JAK1(JH1domain-catalytic) (Homo sapiens, UniProt P23458); details: 1000 nM, read-out: Percent Control
Text: as §1

LKB1 = LKB1 (Homo sapiens, UniProt Q15831); details: 1000 nM, read-out: Percent Control
Text: as §1

MAP3K3 = MAP3K3 (Homo sapiens, UniProt Q99759); details: 1000 nM, read-out: Percent Control
Text: as §1

MET = MET (Homo sapiens, UniProt P08581); details: 1000 nM, read-out: Percent Control
Text: as §1

MKNK1 = MKNK1 (Homo sapiens, UniProt Q9BUB5); details: 1000 nM, read-out: Percent Control
Text: as §1

MRCKB = MRCKB (Homo sapiens, UniProt Q9Y5S2); details: compound concentration 100 nM; Entrez CDC42BPB; read-out: Percent Control
Text: as §1

MST1 = MST1 (Homo sapiens, UniProt Q13043); details: 1000 nM, read-out: Percent Control
Text: as §1

NEK3 = NEK3 (Homo sapiens, UniProt P51956); details: 1000 nM, read-out: Percent Control
Text: as §1

NEK5 = NEK5 (Homo sapiens, UniProt Q6P3R8); details: 1000 nM, read-out: Percent Control
Text: as §1

PDGFRA = PDGFRA (Homo sapiens, UniProt P16234); details: 1000 nM, read-out: Percent Control
Text: as §1

PIK3CA = PIK3CA (Homo sapiens, UniProt P42336); details: 1000 nM, read-out: Percent Control
Text: as §1

PIM3 = PIM3 (Homo sapiens, UniProt Q86V86); details: 1000 nM, read-out: Percent Control
Text: as §1

PIP5K2B = PIP5K2B (Homo sapiens, UniProt P78356); details: 1000 nM, read-out: Percent Control
Text: as §1

PKNB(M.tuberculosis) = PKNB(M.tuberculosis) (Mycobacterium tuberculosis, UniProt P9WI81); details: 1000 nM, read-out: Percent Control
Text: as §1

PRKCI = PRKCI (Homo sapiens, UniProt P41743); details: 1000 nM, read-out: Percent Control
Chain of PRKCI (P41743 whole entry): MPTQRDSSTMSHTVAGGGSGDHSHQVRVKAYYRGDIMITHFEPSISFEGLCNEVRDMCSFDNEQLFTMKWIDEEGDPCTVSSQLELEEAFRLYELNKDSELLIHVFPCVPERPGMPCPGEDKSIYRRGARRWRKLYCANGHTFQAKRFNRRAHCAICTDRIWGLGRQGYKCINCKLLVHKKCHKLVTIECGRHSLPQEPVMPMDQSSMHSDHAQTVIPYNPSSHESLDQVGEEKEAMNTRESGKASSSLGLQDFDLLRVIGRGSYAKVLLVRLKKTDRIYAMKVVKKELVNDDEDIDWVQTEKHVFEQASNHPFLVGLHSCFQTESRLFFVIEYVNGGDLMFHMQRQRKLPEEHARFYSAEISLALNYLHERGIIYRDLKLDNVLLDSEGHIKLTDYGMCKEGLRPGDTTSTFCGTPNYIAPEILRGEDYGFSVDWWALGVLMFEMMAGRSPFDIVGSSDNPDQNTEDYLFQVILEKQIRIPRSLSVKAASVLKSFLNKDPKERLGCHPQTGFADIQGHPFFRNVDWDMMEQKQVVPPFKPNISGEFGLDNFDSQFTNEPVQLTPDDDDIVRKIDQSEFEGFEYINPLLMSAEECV
Text: as §1

RIOK2 = RIOK2 (Homo sapiens, UniProt Q9BVS4); details: compound concentration 100 nM; Entrez RIOK2; read-out: Percent Control
Text: as §1

RIPK2 = RIPK2 (Homo sapiens, UniProt O43353); details: 1000 nM, read-out: Percent Control
Text: as §1

TGFBR1 = TGFBR1 (Homo sapiens, UniProt P36897); details: compound concentration 100 nM; Entrez TGFBR1; read-out: Percent Control
Text: as §1

TSSK3 = TSSK3 (Homo sapiens, UniProt Q96PN8); details: compound concentration 100 nM; Entrez TSSK3; read-out: Percent Control
Chain of TSSK3 (Q96PN8 whole entry): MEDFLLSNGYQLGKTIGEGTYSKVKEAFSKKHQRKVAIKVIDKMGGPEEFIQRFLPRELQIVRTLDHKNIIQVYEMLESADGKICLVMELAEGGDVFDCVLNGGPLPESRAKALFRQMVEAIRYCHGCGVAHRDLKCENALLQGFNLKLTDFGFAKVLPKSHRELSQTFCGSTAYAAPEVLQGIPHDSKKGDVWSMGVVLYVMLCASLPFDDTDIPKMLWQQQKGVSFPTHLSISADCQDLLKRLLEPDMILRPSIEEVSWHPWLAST
Text: as §1

YANK2 = YANK2 (Homo sapiens, UniProt Q9NY57); details: compound concentration 100 nM; Entrez STK32B; read-out: Percent Control
Text: as §1

YANK3 = YANK3 (Homo sapiens, UniProt Q86UX6); details: 1000 nM, read-out: Percent Control
Text: as §1

YSK4 = YSK4 (Homo sapiens, UniProt Q56UN5); details: compound concentration 100 nM; Entrez MAP3K19; read-out: Percent Control
Text: as §1

p38-delta = p38-delta (Homo sapiens, UniProt O15264); details: compound concentration 100 nM; Entrez MAPK13; read-out: Percent Control
Text: as §1

Chain of ACVR1 (Q04771 21-509): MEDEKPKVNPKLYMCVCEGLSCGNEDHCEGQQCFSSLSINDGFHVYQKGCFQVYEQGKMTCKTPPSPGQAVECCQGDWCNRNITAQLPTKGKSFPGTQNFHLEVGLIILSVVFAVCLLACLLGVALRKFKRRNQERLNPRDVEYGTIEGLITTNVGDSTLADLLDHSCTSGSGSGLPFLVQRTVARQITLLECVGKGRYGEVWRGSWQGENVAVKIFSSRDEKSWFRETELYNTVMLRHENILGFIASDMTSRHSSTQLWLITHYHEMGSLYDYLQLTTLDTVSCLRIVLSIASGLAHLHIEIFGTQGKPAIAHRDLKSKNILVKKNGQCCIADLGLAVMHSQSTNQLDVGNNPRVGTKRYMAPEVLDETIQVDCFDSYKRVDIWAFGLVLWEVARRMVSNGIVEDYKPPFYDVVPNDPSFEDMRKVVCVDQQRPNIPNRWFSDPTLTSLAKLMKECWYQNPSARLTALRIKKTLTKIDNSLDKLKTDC

Structure (SMILES): CN1C(=O)[C@@H](N2CCc3c(nn(Cc4ccccc4)c3C(N)=O)C2=O)COc2cc(Cl)ccc21 [Compound 10, (S)-2-benzyl-6-(8-chloro-5-methyl-4-oxo-2,3,4,5-tetrahydrobenzo[b][1,4]oxazepin-3-yl)-7-oxo-4,5,6,7-tetrahydro-2H-pyrazolo[3,4-c]pyridine-3-carboxamide]
- remaining binding at 1 µM (ACVR1): 91%
- remaining binding at 1 µM (AURKB; 1000 nM): 100%
- remaining binding at 0.1 µM (AURKB; compound concentration 100 nM, Entrez AURKB): 100%
- remaining binding at 1 µM (CAMK2B): 80%
- remaining binding at 1 µM (CAMKK1): 74%
- remaining binding at 1 µM (CDK11; 1000 nM): 100%
- remaining binding at 0.1 µM (CDK11; compound concentration 100 nM, Entrez CDK19): 100%
- remaining binding at 1 µM (CDK3): 87%
- remaining binding at 1 µM (CDKL1; 1000 nM): 99%
- remaining binding at 0.1 µM (CDKL1; compound concentration 100 nM, Entrez CDKL1): 96%
- remaining binding at 1 µM (CIT): 79%
- remaining binding at 1 µM (CSF1R; 1000 nM): 100%
- remaining binding at 0.1 µM (CSF1R; compound concentration 100 nM, Entrez CSF1R): 83%
- remaining binding at 1 µM (CSNK2A2): 88%
- remaining binding at 1 µM (CTK): 97%
- remaining binding at 1 µM (EPHA4; 1000 nM): 100%
- remaining binding at 0.1 µM (EPHA4; compound concentration 100 nM, Entrez EPHA4): 99%
- remaining binding at 1 µM (ERK8; 1000 nM): 100%
- remaining binding at 0.1 µM (ERK8; compound concentration 100 nM, Entrez MAPK15): 82%
- remaining binding at 1 µM (HASPIN): 96%
- remaining binding at 1 µM [1]: 89%
- remaining binding at 1 µM (LKB1): 88%
- remaining binding at 1 µM (MAP3K3): 94%
- remaining binding at 1 µM (MET): 94%
- remaining binding at 1 µM (MKNK1): 77%
- remaining binding at 0.1 µM (MRCKB): 95%
- remaining binding at 1 µM (MST1): 92%
- remaining binding at 1 µM (NEK3): 86%
- remaining binding at 1 µM (NEK5): 96%
- remaining binding at 1 µM (PDGFRA): 87%
- remaining binding at 1 µM (PIK3CA): 92%
- remaining binding at 1 µM (PIM3): 65%
- remaining binding at 1 µM (PIP5K2B): 73%
- remaining binding at 1 µM (PKNB(M.tuberculosis)): 83%
- remaining binding at 1 µM (PRKCI): 80%
- remaining binding at 0.1 µM (RIOK2): 94%
- remaining binding at 1 µM (RIPK2): 80%
- remaining binding at 0.1 µM (TGFBR1): 100%
- remaining binding at 0.1 µM (TSSK3): 100%
- remaining binding at 0.1 µM (YANK2): 99%
- remaining binding at 1 µM (YANK3): 92%
- remaining binding at 0.1 µM (YSK4): 88%
- remaining binding at 0.1 µM (p38-delta): 79%
